Key:
Details in all cases: exposure time: 72 h
E34 [1] = patient-derived glioblastoma stem cells of proneural subtype; assay: phenotypic distance (Euclidean, principal components) from DMSO controls (arbitrary units); higher = stronger morphological change
E13 [2] = patient-derived glioblastoma stem cells of classical subtype; assay: as above
E21 [3] = patient-derived glioblastoma stem cells of mesenchymal subtype; assay: as above
FT3469 [4] = normal neural stem cell line; assay: as above
E28 [5] = patient-derived glioblastoma stem cells of classical subtype; assay: as above
E57 [6] = patient-derived glioblastoma stem cells of mesenchymal subtype; assay: as above
E31 [7] = patient-derived glioblastoma stem cells of proneural subtype; assay: as above
E34 [8] = assay: surviving fraction (nuclei count normalised to DMSO); higher = more cells surviving (less toxic)
E13 [9] = assay: as above
E21 [10] = assay: as above
FT3469 [11] = assay: as above
E28 [12] = assay: as above
E57 [13] = assay: as above
E31 [14] = assay: as above
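Throughout, for phenotypic distance (Euclidean, principal components) from DMSO controls: cell Painting imaging in 384-well plates, CellProfiler features reduced to at least 20 principal components, Euclidean distance versus same-plate DMSO vehicle wells (0.1% v/v), median over six images per well.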
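Throughout, for surviving fraction (nuclei count normalised to DMSO): nuclei counted by high-content imaging of Hoechst-stained cells in laminin-coated 384-well plates, relative to 0.1% DMSO vehicle wells, with staurosporine as cell-death control.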

## C/C(=C\c1csc(C)n1)[C@@H]1C[C@@H]2O[C@]2(C)CCC[C@H](C)[C@H](O)[C@@H](C)C(=O)C(C)(C)[C@@H](O)CC(=O)N1 [Ixabepilone]
E34 [1]; 4.1 nM
  phenotypic distance: 2.35
E34 [1]; 12.3 nM
  phenotypic distance: 2.42
E34 [1]; 37 nM
  phenotypic distance: 2.65
E34 [1]; 111.1 nM
  phenotypic distance: 3.43
E34 [1]; 333.3 nM
  phenotypic distance: 3.13
E34 [1]; 1000 nM
  phenotypic distance: 3.44
E34 [1]; 3000 nM
  phenotypic distance: 4.33
E13 [2]; 4.1 nM
  phenotypic distance: 4.32
E13 [2]; 12.3 nM
  phenotypic distance: 5.35
E13 [2]; 37 nM
  phenotypic distance: 4.56
E13 [2]; 111.1 nM
  phenotypic distance: 5.86
E13 [2]; 333.3 nM
  phenotypic distance: 5.9
E13 [2]; 1000 nM
  phenotypic distance: 6.44
E13 [2]; 3000 nM
  phenotypic distance: 6.86
E21 [3]; 4.1 nM
  phenotypic distance: 6.26
E21 [3]; 12.3 nM
  phenotypic distance: 5.66
E21 [3]; 37 nM
  phenotypic distance: 6.8
E21 [3]; 111.1 nM
  phenotypic distance: 5.59
E21 [3]; 333.3 nM
  phenotypic distance: 6.55
E21 [3]; 1000 nM
  phenotypic distance: 6.74
E21 [3]; 3000 nM
  phenotypic distance: 6.15
FT3469 [4]; 4.1 nM
  phenotypic distance: 2.99
FT3469 [4]; 12.3 nM
  phenotypic distance: 3.28
FT3469 [4]; 37 nM
  phenotypic distance: 4.81
FT3469 [4]; 111.1 nM
  phenotypic distance: 3.58
FT3469 [4]; 333.3 nM
  phenotypic distance: 3.51
FT3469 [4]; 1000 nM
  phenotypic distance: 4.06
FT3469 [4]; 3000 nM
  phenotypic distance: 4.05
E28 [5]; 4.1 nM
  phenotypic distance: 2.8
E28 [5]; 12.3 nM
  phenotypic distance: 2.1
E28 [5]; 37 nM
  phenotypic distance: 3.6
E28 [5]; 111.1 nM
  phenotypic distance: 4.12
E28 [5]; 333.3 nM
  phenotypic distance: 4.09
E28 [5]; 1000 nM
  phenotypic distance: 3.46
E28 [5]; 3000 nM
  phenotypic distance: 4.61
E57 [6]; 4.1 nM
  phenotypic distance: 6.02
E57 [6]; 12.3 nM
  phenotypic distance: 5.51
E57 [6]; 37 nM
  phenotypic distance: 5.64
E57 [6]; 111.1 nM
  phenotypic distance: 5.48
E57 [6]; 333.3 nM
  phenotypic distance: 7.37
E57 [6]; 1000 nM
  phenotypic distance: 6.58
E57 [6]; 3000 nM
  phenotypic distance: 6.89
E31 [7]; 4.1 nM
  phenotypic distance: 2.61
E31 [7]; 12.3 nM
  phenotypic distance: 3.43
E31 [7]; 37 nM
  phenotypic distance: 3.83
E31 [7]; 111.1 nM
  phenotypic distance: 4.57
E31 [7]; 333.3 nM
  phenotypic distance: 4.48
E31 [7]; 1000 nM
  phenotypic distance: 4.78
E31 [7]; 3000 nM
  phenotypic distance: 4.08
E34 [8]; 4.1 nM
  surviving fraction: 0.609
E34 [8]; 12.3 nM
  surviving fraction: 0.672
E34 [8]; 37 nM
  surviving fraction: 0.582
E34 [8]; 111.1 nM
  surviving fraction: 0.531
E34 [8]; 333.3 nM
  surviving fraction: 0.465
E34 [8]; 1000 nM
  surviving fraction: 0.421
E34 [8]; 3000 nM
  surviving fraction: 0.331
E13 [9]; 4.1 nM
  surviving fraction: 0.341
E13 [9]; 12.3 nM
  surviving fraction: 0.286
E13 [9]; 37 nM
  surviving fraction: 0.271
E13 [9]; 111.1 nM
  surviving fraction: 0.193
E13 [9]; 333.3 nM
  surviving fraction: 0.21
E13 [9]; 1000 nM
  surviving fraction: 0.193
E13 [9]; 3000 nM
  surviving fraction: 0.175
E21 [10]; 4.1 nM
  surviving fraction: 0.229
E21 [10]; 12.3 nM
  surviving fraction: 0.256
E21 [10]; 37 nM
  surviving fraction: 0.211
E21 [10]; 111.1 nM
  surviving fraction: 0.245
E21 [10]; 333.3 nM
  surviving fraction: 0.286
E21 [10]; 1000 nM
  surviving fraction: 0.259
E21 [10]; 3000 nM
  surviving fraction: 0.243
FT3469 [11]; 4.1 nM
  surviving fraction: 0.574
FT3469 [11]; 12.3 nM
  surviving fraction: 0.624
FT3469 [11]; 37 nM
  surviving fraction: 0.63
FT3469 [11]; 111.1 nM
  surviving fraction: 0.677
FT3469 [11]; 333.3 nM
  surviving fraction: 0.521
FT3469 [11]; 1000 nM
  surviving fraction: 0.716
FT3469 [11]; 3000 nM
  surviving fraction: 0.548
E28 [12]; 4.1 nM
  surviving fraction: 0.611
E28 [12]; 12.3 nM
  surviving fraction: 0.6
E28 [12]; 37 nM
  surviving fraction: 0.431
E28 [12]; 111.1 nM
  surviving fraction: 0.464
E28 [12]; 333.3 nM
  surviving fraction: 0.345
E28 [12]; 1000 nM
  surviving fraction: 0.404
E28 [12]; 3000 nM
  surviving fraction: 0.237
E57 [13]; 4.1 nM
  surviving fraction: 0.172
E57 [13]; 12.3 nM
  surviving fraction: 0.152
E57 [13]; 37 nM
  surviving fraction: 0.128
E57 [13]; 111.1 nM
  surviving fraction: 0.0952
E57 [13]; 333.3 nM
  surviving fraction: 0.0774
E57 [13]; 1000 nM
  surviving fraction: 0.0873
E57 [13]; 3000 nM
  surviving fraction: 0.0627
E31 [14]; 4.1 nM
  surviving fraction: 0.269
E31 [14]; 12.3 nM
  surviving fraction: 0.261
E31 [14]; 37 nM
  surviving fraction: 0.172
E31 [14]; 111.1 nM
  surviving fraction: 0.149
E31 [14]; 333.3 nM
  surviving fraction: 0.137
E31 [14]; 1000 nM
  surviving fraction: 0.208
E31 [14]; 3000 nM
  surviving fraction: 0.157

From the supplement of paper PMC13207355
